In US20150080380A1, “Therapeutic Uses” (GLAXOSMITHKLINE INTELLECTUAL PROPERTY DEVELOPMENT LIMITED, priority 2012, published 2015):

Columns and labels:
[1] = tested on: remyelination in cuprizone/rapamycin-induced demyelination; assay: Mouse cuprizone/rapamycin-induced demyelination model (Black-gold II staining); assay type: in vivo, C57BL/6 mice; settings: 30 mg/kg orally b.i.d. 9 days, n=7, P<0.05
Protocol: The ability of Example compound 2 to enhance in vivo remyelination was determined with the mouse cuprizone/rapamycin-induced demyelination model.
The cuprizone plus rapamycin model was conducted with the protocol as follows: rapamycin was dissolved in 100% ethanol and stored at −20° C. until use. Immediately before injection, the rapamycin was diluted in vehicle solution to get a final concentration in 5% PEG-400, 5% Tween 80, and 4% ethanol. The C57BL/6 mice at age of 8 weeks were fed with powder mouse food mixed freshly with 0.2% cuprizone (w/w) and received daily intraperitoneal injection of rapamycin (10 mg/kg body weight) for 5 weeks to induce demyelination, then animals were allowed to recover (removal of cuprizone from the diet and rapamycin injection) and administrated with Example compound 2, at 30 mg/kg body weight orally, b.i.d. for an additional 9 days prior to sacrifice. The brain samples were collected for pathologic analysis. […]
Mice were deeply anesthetized and quickly perfused with 0.9% saline via the left cardiac ventricle to drain out blood. […] The sections were monitored to determine the extent of staining. […]
Image-Pro 6.3 software (Media Cybernetics, USA) was used for subsequent quantitative evaluation. […] For measurement of mean density, areas and IOD in central corpus callosum or cortex were calculated after all digital images were set under the same colour range. […]

[2] = target: T1, human recombinant H3 receptor (Homo sapiens, UniProt Q9Y5N1); assay: GTPγS binding assay (basal binding, HEK-293-GαO membranes); assay type: biochemical; settings: 100 nM-0.001 nM, absence of H3R agonist, 3 independent experiments; read-out: pEC50, inhibition of basal GTPγS binding (converted)
T1 construct: host or cells: HEK-293-GαO cells transduced with BacMam virus; membranes prepared
Protocol: The effect of Example compound 1 on basal GTPγS binding to the H3R receptor was determined in the GTPγS binding assay.
Human embryonic kidney 293 cells stably expressing G protein GαO (HEK-293-GO) were maintained in minimum essential medium (MEM) supplemented with Earle's salts, 2 mM L-glutamine, […] geneticin and 10% foetal bovine serum at 37-8° C., 5% CO2 in a humidified environment. Exponentially growing cells were infected with BacMam virus encoding the human recombinant H3 receptor (Biocat: Virus 96801) as follows. Cells were detached from flasks in PBS and collected by centrifugation at 200×g for 5 min at room temperature. […]
Cell membranes were diluted to ˜1 mg/ml in assay buffer (20 mM HEPES, 100 mM NaCl, 10 mM MgCl2, pH 7.4) and incubated with wheat germ agglutinin scintillation proximity assay (SPA) beads (Amersham Biosciences) for 45 min, after which GDP ([…]) was added. […] Non-specific binding was determined by the inclusion of 0.6 mM GTPγS. […] Filters were washed twice with 4 ml ice-cold water and bound […] on the filters was measured by scintillation counting on a Wallac 1450 Microbeta Trilux counter.
The data was analyzed and presented as fold change of the number of the vehicle control well (DMSO). […]

T1 sequence (Q9Y5N1 whole entry): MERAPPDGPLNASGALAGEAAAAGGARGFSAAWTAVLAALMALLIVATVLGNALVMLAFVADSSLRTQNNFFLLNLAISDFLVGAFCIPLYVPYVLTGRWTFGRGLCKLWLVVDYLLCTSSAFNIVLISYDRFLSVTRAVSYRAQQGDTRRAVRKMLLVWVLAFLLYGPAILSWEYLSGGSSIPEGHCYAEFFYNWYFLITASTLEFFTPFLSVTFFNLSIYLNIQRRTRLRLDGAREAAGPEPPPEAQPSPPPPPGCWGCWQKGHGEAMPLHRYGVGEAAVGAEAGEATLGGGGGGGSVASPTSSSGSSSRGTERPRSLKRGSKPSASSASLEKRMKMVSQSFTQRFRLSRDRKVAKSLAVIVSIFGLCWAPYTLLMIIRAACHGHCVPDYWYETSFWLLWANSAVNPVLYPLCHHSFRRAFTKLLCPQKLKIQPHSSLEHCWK

| EC50 [2] | SMILES | mean intensity of Black-gold II staining, forebrain corpus callosum ([1]; vehicle 14.65%) | mean intensity of Black-gold II staining, forebrain cortex ([1]; vehicle 40.79%) |
| --- | --- | --- | --- |
| – | c1cc2c(cc1-c1noc(CC3CCN(C4CCC4)CC3)n1)OCO2 [Example compound 2, 3-(benzo[d][1,3]dioxol-5-yl)-5-((1-cyclobutylpiperidin-4-yl)methyl)-1,2,4-oxadiazole] | 27.68±5.44% | 60.05±6.28% |
| 0.112 nM | O=C1CCCN1c1ccc(Oc2ccc3c(c2)CCN(C2CCC2)CC3)nc1 [Example compound 1, 1-{6-[(3-cyclobutyl-2,3,4,5-tetrahydro-1H-3-benzazepin-7-yl)oxy]-3-pyridinyl}-2-pyrrolidinone] | – | – |
